Usually IC50 stands for the concentration at which inhibition is half-maximal. Read a high IC50 as a need for much substance. The Cmax is the peak of the concentration-time curve. The Tmax is the time at which the peak concentration occurs. Usually AUC(0-t) stands for the area under the concentration-time curve up to a stated or last time point. A word on the Vdss: it is a proportionality between amount in the body and measured concentration, not a real space. In general, half-life refers to the time needed for the level to fall by half in the phase considered. Higher therefore signals slow decline. The MRT last is a mean duration of stay, worked out from the concentration-time curve. The term bioavailability denotes the share of a dose that reaches the circulation, judged against a reference dose that is usually intravenous. High values mean much systemic uptake, low ones little systemic uptake.

The values below come from ChEMBL document CHEMBL4382235, “Design, synthesis and biological evaluation of novel 1-phenyl phenanthridin-6(5H)-one derivatives as anti-tumor agents targeting TOPK” (Eur J Med Chem, 2019).

Series [1] deals with A549. In words: cells. To be noted: Homo sapiens, A549, 72 h.
Description: Antiproliferative activity against human A549 cells after 72 hrs by MTT assay
Series [2] concerns HCT-116. The series can be described thus: cells. Conditions: Homo sapiens, HCT-116, 72 h.
Description: Antiproliferative activity against human HCT116 cells after 72 hrs by MTT assay
For series [3], the system named is HCT-15. The series can be described thus: cells. Conditions: Homo sapiens, HCT-15, 72 h.
Description: Antiproliferative activity against human HCT15 cells after 72 hrs by MTT assay
Series [4] deals with HCT-116. The series can be described thus: animal or person. Conditions: Mus musculus, HCT-116, po, read-out: TGI.
Series [5] can be described thus: Toxicity in nude mouse xenografted with human HCT116 cells assessed as body weight loss at 10 to 15 mg/kg, qd administered via gavage for 3 weeks. To be noted: in vivo, po, 504 h. It is filed as organism-based.
The nature of series [6]: Toxicity in nude mouse xenografted with human HCT15 cells assessed as body weight loss at 10 to 15 mg/kg, qd administered via gavage for 3 weeks. The series is classed as organism-based. To be noted: in vivo, po, 504 h.
Series [7] is described as follows: Toxicity in nude mouse xenografted with human SW620 cells assessed as body weight loss at 10 to 15 mg/kg, qd administered via gavage for 3 weeks. The series is classed as organism-based. Conditions: in vivo, po, 504 h. In general terms: A xenograft is tissue or cells of one species grown in another, often human tumour cells in immunodeficient mice.
Series [8] is described as follows: Cmax in Sprague-Dawley rat at 2 mg/kg, iv by LC-MS/MS analysis. Conditions: in vivo. Details: dose 2 mg/kg, route intravenous. It is filed as ADME, organism-based.
Series [9] is described as follows: Cmax in Sprague-Dawley rat at 15 mg/kg, po by LC-MS/MS analysis. It is filed as ADME, organism-based. Details: dose 15 mg/kg, route oral. To be noted: in vivo.
A short description of series [10]: Tmax in Sprague-Dawley rat at 2 mg/kg, iv by LC-MS/MS analysis. The series is classed as ADME, organism-based. Conditions: in vivo.
Series [11] can be described thus: Tmax in Sprague-Dawley rat at 15 mg/kg, po by LC-MS/MS analysis. The series is classed as ADME, organism-based. Conditions: in vivo.
A short description of series [12]: AUC (0 to t) in Sprague-Dawley rat at 2 mg/kg, iv by LC-MS/MS analysis. It is filed as ADME, organism-based. Conditions: in vivo.
A short description of series [13]: AUC (0 to 24 hrs) in Sprague-Dawley rat at 15 mg/kg, po by LC-MS/MS analysis. It is filed as ADME, organism-based. Details: dose 15 mg/kg, time < 24 hr, route oral. To be noted: in vivo.
The nature of series [14]: Clearance in Sprague-Dawley rat at 2 mg/kg, iv by LC-MS/MS analysis. Conditions: in vivo. The series is classed as ADME, organism-based.
A short description of series [15]: Volume of distribution at steady state in Sprague-Dawley rat at 2 mg/kg, iv by LC-MS/MS analysis. Conditions: in vivo. It is filed as ADME, organism-based.
Series [16] is described as follows: Half life in Sprague-Dawley rat at 2 mg/kg, iv by LC-MS/MS analysis. The series is classed as ADME, organism-based. To be noted: in vivo.
Series [17] can be described thus: MRT (0 to t) in Sprague-Dawley rat at 2 mg/kg, iv by LC-MS/MS analysis. The series is classed as ADME, organism-based. Conditions: in vivo.
Series [18] in a line: MRT (0 to t) in Sprague-Dawley rat at 15 mg/kg, po by LC-MS/MS analysis. It is filed as ADME, organism-based. To be noted: in vivo.
A short description of series [19]: Oral bioavailability in Sprague-Dawley rat at 15 mg/kg by LC-MS/MS analysis. The series is classed as ADME, organism-based. To be noted: in vivo.
For series [20], the system named is HCT-116. In words: animal or person. To be noted: Mus musculus, HCT-116, po, read-out: TGI. The source holds these as a separate data set.
The test system of series [21] is HCT-15. The series can be described thus: animal or person. To be noted: Mus musculus, HCT-15, po, read-out: TGI.
Series [22] concerns HCT-15. In words: animal or person. To be noted: Mus musculus, HCT-15, po, read-out: TGI. This is another data set of the same source.
Series [23] relates to SW-620. In words: animal or person. To be noted: Mus musculus, SW-620, po, read-out: TGI.
For series [24], the system named is SW-620. The series can be described thus: animal or person. Conditions: Mus musculus, SW-620, po, read-out: TGI. The source holds these as a separate data set.

For `Cc1cc(O)c(-c2ccc([C@@H](C)CN(C)C)cc2)c2c1[nH]c(=O)c1sccc12`, the IC50 is 0.0204 µM in series [1], 0.045 µM in series [2] and 0.0731 µM in series [3]. Further, the inhibition in vivo at 15 mg/kg in series [4] was found to be 49.4%.
As to `Cc1cc(O)c(-c2ccc([C@@H](C)CN)cc2)c2c1[nH]c(=O)c1c(O)cccc12`, the Activity entry in [5], in series [6] and in series [7] was “Non-Toxic” throughout. Also, the values for the Cmax in series [8] and in [9] were 188 ng/mL and 251 ng/mL, respectively. Besides, the results for the Tmax in series [10] and in [11] were 4.8 min and 6.67 h, respectively. Moreover, the AUC(0-t) in series [12] turned out to be 564 ng·h/mL. In series [13], this compound came in with an AUC(0-t) at 24 h of 4230 ng·h/mL. Moreover, in series [14], the CL was found to be 33.9532 mL/min/kg. Moreover, the Vdss in series [15] amounted to 20.25 L/kg. In addition, in [16], the half-life is 7.02 h. Besides, the “MRT(t)” value in [17] stood at 3.24 h. In addition, in series [18], the MRT last was 10.5 h. This compound also showed a bioavailability in series [19] of 100%. For the same compound, the IC50 in [1] was found to be 0.00541 µM; in [2], 0.00787 µM; in series [3] it was 0.0314 µM. Besides, the inhibition in vivo at 10 mg/kg came out at 53.7% in [20], 42.1% in series [21] and 72.1% in [23]. Also, the inhibition in vivo at 15 mg/kg in series [4] was found to be 75.8%; in [22] it was 78.8%; in series [24] it was 79.7%.
`Cc1ccc2c(=O)[nH]c3c(C)cc(O)c(-c4ccc([C@@H](C)CN(C)C)cc4)c3c2c1`: the IC50 is 0.466 µM in [1], 0.385 µM in series [2] and 0.501 µM in series [3].
